Source: the supplement of paper PMC10307832

Assays:
Assay in all cases: relative viability (nuclei count vs DMSO), 5 days (fraction); higher = more cells survive
[1] = compound: COc1cc2ncn(-c3cc(OCc4ccccc4C(F)(F)F)c(C(N)=O)s3)c2cc1OC + CC(=O)Nc1cccc(-n2c(=O)n(C3CC3)c(=O)c3c(Nc4ccc(I)cc4F)n(C)c(=O)c(C)c32)c1 [Trametinib] (partner 0.02 µM)
Outline: (§1)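 A single step with final 0.05% Triton X-100, 1% formaldehyde and 1 ug/ml Hoechst fixed the cells and stained nuclei 5 days after treatment. Lung cancer cell lines in 1536-well plates had been treated by pin tool the day after seeding with one drug alone or a fixed anchor-drug dose plus five library-drug doses (not always all listed) in √10 steps, and nuclei were counted on 4× images. Relative viability is the ratio of nuclei in treated wells to nuclei in vehicle wells, taken as the median of duplicate plates.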

[2] = compound: COc1cc2ncn(-c3cc(OCc4ccccc4C(F)(F)F)c(C(N)=O)s3)c2cc1OC + CS(=O)(=O)CCNCc1ccc(-c2ccc3ncnc(Nc4ccc(OCc5cccc(F)c5)c(Cl)c4)c3c2)o1 [Lapatinib] (partner 2 µM)
Outline: as §1

[3] = compound: COc1cc2ncn(-c3cc(OCc4ccccc4C(F)(F)F)c(C(N)=O)s3)c2cc1OC + N=C(N)NC(=N)NCCc1ccccc1 [Phenformin] (partner 250 µM)
Outline: as §1

[4] = compound: COc1cc2ncn(-c3cc(OCc4ccccc4C(F)(F)F)c(C(N)=O)s3)c2cc1OC + O=C(c1cc(Cc2n[nH]c(=O)c3ccccc23)ccc1F)N1CCN(C(=O)C2CC2)CC1 [Olaparib] (partner 8 µM)
Outline: as §1

| Cell Line | relative viability ([1]; first compound 0.05 µM) | relative viability ([1]; first compound 0.1581 µM) | relative viability ([1]; first compound 0.5 µM) | relative viability ([1]; first compound 1.581 µM) | relative viability ([1]; first compound 5 µM) | relative viability ([2]; first compound 0.05 µM) | relative viability ([2]; first compound 0.1581 µM) | relative viability ([2]; first compound 0.5 µM) | relative viability ([2]; first compound 1.581 µM) | relative viability ([2]; first compound 5 µM) | relative viability ([3]; first compound 0.05 µM) | relative viability ([3]; first compound 0.1581 µM) | relative viability ([3]; first compound 0.5 µM) | relative viability ([3]; first compound 1.581 µM) | relative viability ([3]; first compound 5 µM) | relative viability ([4]; first compound 0.05 µM) | relative viability ([4]; first compound 0.1581 µM) | relative viability ([4]; first compound 0.5 µM) | relative viability ([4]; first compound 1.581 µM) | relative viability ([4]; first compound 5 µM) |
| --- | --- | --- | --- | --- | --- | --- | --- | --- | --- | --- | --- | --- | --- | --- | --- | --- | --- | --- | --- | --- |
| HCC-827 | 0.479 | 0.421 | 0.473 | 0.428 | 0.453 | 0.165 | 0.23 | 0.207 | 0.13 | 0.206 | 0.468 | 0.426 | 0.33 | 0.22 | 0.181 | 0.575 | 0.547 | 0.452 | 0.306 | 0.179 |
| HCC-78 | 0.949 | 0.54 | 0.544 | 0.642 | 0.682 | 0.75 | 0.429 | 0.542 | 0.566 | 0.804 | 0.851 | 0.837 | 0.495 | 0.446 | 0.22 | 0.939 | 0.927 | 0.645 | 0.601 | 0.468 |
| NCI-H2085 | 0.332 | 0.614 | 0.421 | 0.221 | 0.2 | 0.824 | 0.748 | 0.527 | 0.347 | 0.322 | 0.719 | 0.725 | 0.367 | 0.234 | 0.251 | 0.658 | 0.721 | 0.481 | 0.367 | 0.306 |
| PC-3 [JPC-3] | 0.697 | 0.698 | 0.536 | 0.407 | 0.279 | 0.443 | 0.508 | 0.37 | 0.227 | 0.263 | 0.494 | 0.501 | 0.381 | 0.184 | 0.187 | 0.955 | 1.01 | 0.588 | 0.424 | 0.316 |
| NCI-H2342 | 0.794 | 0.757 | 0.696 | 0.607 | 0.598 | – | – | – | – | – | 0.631 | 0.652 | 0.457 | 0.379 | 0.299 | 0.389 | 0.437 | 0.407 | 0.388 | 0.421 |
| A-427 | 0.833 | 0.52 | 0.59 | 0.336 | 0.187 | 1.02 | 1.12 | 1 | 0.418 | 0.116 | 0.336 | 0.277 | 0.25 | 0.151 | 0.0968 | 0.745 | 0.802 | 0.54 | 0.267 | 0.169 |
| H3255 | 0.609 | 0.545 | 0.568 | 0.411 | 0.301 | 0.24 | 0.261 | 0.206 | 0.17 | 0.149 | 0.365 | 0.37 | 0.282 | – | 0.304 | 0.532 | 0.534 | 0.541 | 0.415 | 0.332 |
| HCC-44 | 0.977 | 0.935 | 0.874 | 0.387 | 0.225 | 1.06 | 0.976 | 0.987 | 0.0934 | 0.171 | 0.193 | 0.164 | 0.106 | 0.0862 | 0.118 | 1.06 | 1.04 | 0.877 | 0.39 | 0.372 |
| NCI-H1734 | 0.52 | 0.558 | 0.623 | 0.294 | 0.163 | 1.14 | 0.986 | 0.792 | 0.241 | 0.186 | 0.417 | 0.329 | 0.322 | 0.18 | 0.121 | 0.235 | 0.646 | 0.247 | 0.212 | 0.144 |
| NCI-H2228 | 0.409 | 0.268 | 0.188 | 0.116 | 0.136 | 1.26 | 0.998 | 0.297 | 0.162 | 0.251 | 0.305 | 0.337 | 0.155 | 0.121 | 0.144 | 0.224 | 0.721 | 0.201 | 0.157 | 0.194 |
| ABC-1 | – | – | – | – | – | 1.18 | 0.723 | 1.11 | 1.14 | 1.2 | 0.239 | 0.255 | 0.226 | 0.172 | 0.181 | 0.705 | 0.837 | 0.64 | 0.477 | 0.429 |
| COR-L23 | 0.591 | 0.286 | 0.27 | 0.105 | 0.0781 | 0.891 | 1.01 | 0.798 | 0.143 | 0.107 | 0.464 | 0.385 | 0.201 | 0.104 | 0.0889 | 0.307 | 0.282 | 0.138 | 0.0966 | 0.109 |
| ChaGo-K-1 | 1.01 | 0.907 | 0.661 | 0.267 | 0.194 | – | – | – | – | – | 0.638 | 0.476 | 0.49 | 0.163 | 0.128 | 0.398 | 0.389 | 0.312 | 0.208 | 0.12 |
| EBC-1 | – | – | – | – | – | 0.195 | 0.216 | 0.199 | 0.172 | 0.176 | – | – | – | – | – | 0.622 | 0.758 | 0.217 | 0.154 | 0.128 |
| NCI-H441 | 0.537 | 0.423 | 0.156 | 0.133 | 0.113 | – | – | – | – | – | 0.837 | 0.636 | 0.196 | 0.196 | 0.227 | 0.349 | 0.34 | 0.242 | 0.175 | 0.146 |
| A549 | – | – | – | – | – | 0.984 | 0.862 | 0.0918 | 0.0675 | 0.065 | 0.152 | 0.145 | 0.0554 | 0.0361 | 0.0267 | 0.344 | 0.215 | 0.149 | 0.0485 | 0.0961 |
| NCI-H1703 | – | – | – | – | – | 1.28 | 1.44 | 0.564 | 0.17 | 0.235 | – | – | – | – | – | 0.416 | 0.616 | 0.488 | 0.261 | 0.066 |
| LCLC-103H | 0.675 | 0.643 | 0.565 | 0.452 | 0.268 | – | – | – | – | – | 0.386 | 0.397 | 0.279 | 0.178 | 0.127 | 0.687 | 0.768 | 0.651 | 0.281 | 0.212 |
| NCI-H1563 | – | – | – | – | – | 1.04 | 1.02 | 0.877 | 0.748 | 0.588 | 0.709 | 0.628 | 0.65 | 0.528 | 0.452 | – | – | – | – | – |
